# In ChEMBL document CHEMBL3885861, “Open TG-GATES”:
# *1 amine or outer side, *2 acyl side, *3 side chain or, on linkers, in order; H or OH if unused. Where a SMILES comes first, the peptide text is derived from it. Bridges are numbered along the chain shown (N, C = ends). [ ]: non-standard residue; d: D form. Trp(2-yl) = O=C([C@H](Cc1c([*:3])[nH]c2ccccc12)N[*:1])[*:2]; Leu(4R-OH,5-OH) = C[C@](O)(CO)C[C@H](N)C(=O)O; cisHyp = O=C(O)[C@@H]1C[C@H](O)CN1
# Organism: Rattus norvegicus
# Assay: Open TG-GATES - Regimen: Daily Repeat
# Format: toxicity, organism-based, Sprague-Dawley
# Set-up: regimen Daily Repeat, gender Male, age 6 weeks
# Conditions: in vivo, ip, route intraperitoneal injection; for APTT / Bas / Eos / Fbg / Hb / Ht / Lym / MCH / MCHC / MCV / Mono / Neu / PT / Plat / RBC / Ret / WBC: tissue Blood; for KIDNEY_L / KIDNEY_R / KIDNEY_TOTAL: tissue Kidney; for LIVER: tissue Liver; for A/G / ALP / ALT / AST / BUN / CRE / Ca / Cl / DBIL / GLC / IP / K / LDH / Na / PL / RALB / TBIL / TC / TG / TP / gamma-GTP: tissue Plasma
# [1] = 0 mg/kg, 72 h, dose level Control, time 3 day
# [2] = 0 mg/kg, […], dose level Control, time 7 day
# [3] = 1 mg/kg, 72 h, dose level High, time 3 day
# [4] = 1 mg/kg, […], dose level High, time 7 day
structure (smiles),measurement,setting,value
"C[C@@H]1NC(=O)[C@H](C[C@@](C)(O)CO)NC(=O)[C@@H]2Cc3c([nH]c4ccccc34)SC[C@H](NC(=O)[C@@H]([C@H](C)O)NC1=O)C(=O)N1C[C@@H](O)C[C@H]1C(=O)N[C@@H](C)C(=O)N2 [PHALLOIDIN] (cyclo(A[dT]C[cisHyp]A[Trp(2-yl)][Leu(4R-OH,5-OH)]); thioether 3-6)",TERMINAL_BW,[1],224.8 g
same,APTT,[1],23.1 s
same,Bas,[1],0%
same,Eos,[1],1%
same,Fbg,[1],328 mg/dL
same,Hb,[1],13 g/dL
same,Ht,[1],40.4%
same,Lym,[1],83%
same,MCH,[1],20.5 pg
same,MCHC,[1],32.2%
same,MCV,[1],63.5 fL
same,Mono,[1],2.8%
same,Neu,[1],12.6%
same,PT,[1],16.3 s
same,Plat,[1],118.5 x10_4/uL
same,RBC,[1],636.6 x10_4/ul
same,Ret,[1],6.8%
same,WBC,[1],113.9 x10_2/uL
same,KIDNEY_L,[1],1 g
same,KIDNEY_R,[1],1 g
same,KIDNEY_TOTAL,[1],1.9 g
same,LIVER,[1],10.4 g
same,A/G,[1],1.3
same,ALP,[1],1525.8 IU/L
same,ALT,[1],42 IU/L
same,AST,[1],66.8 IU/L
same,BUN,[1],17.4 mg/dL
same,CRE,[1],0.2 mg/dL
same,Ca,[1],10.8 mg/dL
same,Cl,[1],105.4 meq/L
same,DBIL,[1],0 mg/dL
same,GLC,[1],201.4 mg/dL
same,IP,[1],8.4 mg/dL
same,K,[1],4.7 meq/L
same,LDH,[1],177.6 IU/L
same,Na,[1],140.8 meq/L
same,PL,[1],139.6 mg/dL
same,RALB,[1],3.1 g/dL
same,TBIL,[1],0 mg/dL
same,TC,[1],78 mg/dL
same,TG,[1],116.4 mg/dL
same,TP,[1],5.5 g/dL
same,gamma-GTP,[1],1.6 IU/L
same,TERMINAL_BW,[2],261.3 g
same,APTT,[2],23.5 s
same,Bas,[2],0%
same,Eos,[2],1%
same,Fbg,[2],322.2 mg/dL
same,Hb,[2],12.9 g/dL
same,Ht,[2],39.5%
same,Lym,[2],80%
same,MCH,[2],20.4 pg
same,MCHC,[2],32.6%
same,MCV,[2],62.5 fL
same,Mono,[2],1.8%
same,Neu,[2],16.2%
same,PT,[2],15.6 s
same,Plat,[2],135.8 x10_4/uL
same,RBC,[2],632.2 x10_4/ul
same,Ret,[2],6.8%
same,WBC,[2],114.9 x10_2/uL
same,KIDNEY_L,[2],1.1 g
same,KIDNEY_R,[2],1.2 g
same,KIDNEY_TOTAL,[2],2.3 g
same,LIVER,[2],11.8 g
same,A/G,[2],1.2
same,ALP,[2],1235.4 IU/L
same,ALT,[2],36.6 IU/L
same,AST,[2],63.4 IU/L
same,BUN,[2],18 mg/dL
same,CRE,[2],0.2 mg/dL
same,Ca,[2],10.4 mg/dL
same,Cl,[2],105.8 meq/L
same,DBIL,[2],0 mg/dL
same,GLC,[2],189.8 mg/dL
same,IP,[2],8.2 mg/dL
same,K,[2],4.4 meq/L
same,LDH,[2],160.4 IU/L
same,Na,[2],142.6 meq/L
same,PL,[2],130.8 mg/dL
same,RALB,[2],2.9 g/dL
same,TBIL,[2],0.008 mg/dL
same,TC,[2],75 mg/dL
same,TG,[2],88.6 mg/dL
same,TP,[2],5.4 g/dL
same,gamma-GTP,[2],2.8 IU/L
same,TERMINAL_BW,[3],218.4 g
same,APTT,[3],19.4 s
same,Bas,[3],0%
same,Eos,[3],1.2%
same,Fbg,[3],270.8 mg/dL
same,Hb,[3],13.5 g/dL
same,Ht,[3],42.3%
same,Lym,[3],78.2%
same,MCH,[3],20.3 pg
same,MCHC,[3],32%
same,MCV,[3],63.4 fL
same,Mono,[3],3.2%
same,Neu,[3],16.8%
same,PT,[3],15.5 s
same,Plat,[3],119.3 x10_4/uL
same,RBC,[3],667.2 x10_4/ul
same,Ret,[3],6.7%
same,WBC,[3],88.5 x10_2/uL
same,KIDNEY_L,[3],1.1 g
same,KIDNEY_R,[3],1.1 g
same,KIDNEY_TOTAL,[3],2.1 g
same,LIVER,[3],12 g
same,A/G,[3],1.1
same,ALP,[3],2057 IU/L
same,ALT,[3],49 IU/L
same,AST,[3],85.6 IU/L
same,BUN,[3],13.2 mg/dL
same,CRE,[3],0.1 mg/dL
same,Ca,[3],11.1 mg/dL
same,Cl,[3],105.4 meq/L
same,DBIL,[3],0.066 mg/dL
same,GLC,[3],168.8 mg/dL
same,IP,[3],8.3 mg/dL
same,K,[3],5.2 meq/L
same,LDH,[3],169.2 IU/L
same,Na,[3],140.4 meq/L
same,PL,[3],153.6 mg/dL
same,RALB,[3],3 g/dL
same,TBIL,[3],0.084 mg/dL
same,TC,[3],107.4 mg/dL
same,TG,[3],24.2 mg/dL
same,TP,[3],5.8 g/dL
same,gamma-GTP,[3],1.6 IU/L
same,TERMINAL_BW,[4],244 g
same,APTT,[4],17.6 s
same,Bas,[4],0%
same,Eos,[4],1.2%
same,Fbg,[4],254.4 mg/dL
same,Hb,[4],13.7 g/dL
same,Ht,[4],41.8%
same,Lym,[4],79.6%
same,MCH,[4],19.6 pg
same,MCHC,[4],32.9%
same,MCV,[4],59.6 fL
same,Mono,[4],3%
same,Neu,[4],15.8%
same,PT,[4],14.8 s
same,Plat,[4],150.8 x10_4/uL
same,RBC,[4],702.8 x10_4/ul
same,Ret,[4],4.1%
same,WBC,[4],147.5 x10_2/uL
same,KIDNEY_L,[4],1.1 g
same,KIDNEY_R,[4],1.1 g
same,KIDNEY_TOTAL,[4],2.2 g
same,LIVER,[4],13.9 g
same,A/G,[4],0.8
same,ALP,[4],2253.4 IU/L
same,ALT,[4],86.2 IU/L
same,AST,[4],202.2 IU/L
same,BUN,[4],15 mg/dL
same,CRE,[4],0.1 mg/dL
same,Ca,[4],10.7 mg/dL
same,Cl,[4],104.6 meq/L
same,DBIL,[4],0.3 mg/dL
same,GLC,[4],177.8 mg/dL
same,IP,[4],7.3 mg/dL
same,K,[4],4.8 meq/L
same,LDH,[4],258.2 IU/L
same,Na,[4],141 meq/L
same,PL,[4],168 mg/dL
same,RALB,[4],2.6 g/dL
same,TBIL,[4],0.4 mg/dL
same,TC,[4],115.6 mg/dL
same,TG,[4],28.6 mg/dL
same,TP,[4],5.8 g/dL
same,gamma-GTP,[4],3.2 IU/L
